Series [1] concerns HIV-1IIIB infected MT-4 cells. Briefly: Anti-HIV activity, HIV-1IIIB infected MT-4 cells, MTT method (Test Example 1). The series is classed as cell-based. To be noted: Human immunodeficiency virus 1, MT4, 120 h, concentration required for inhibition of cell disorder due to HIV infection by 50%, MOI 0.01, 5 days. As to the method:
Immediately after infection, HIV-1IIIB infected MT-4 cells (3.0×10^4/well, MOI (Multiplicity of infection): 0.01) were added to a 96-well microtiter plate together with the test compounds having different concentrations. The cells were cultured in a carbon dioxide incubator at 37° C. for 5 days, and the number of living cells was measured in accordance with the MTT (tetrazolium) method ([…], et al., J. of Virol. Method, 20, 309-321 […]). The antiviral activity is represented by the concentration required for inhibition of cell disorder due to HIV infection by 50% (EC50: 50% Effective Concentration) (μM), and the results are shown in Table 2.

Another series addresses T1, CXCR4 (Homo sapiens, UniProt P61073).
T1 construct: endogenous in cells; host or cells: MT-4 cells
Briefly: Inhibition of 125I-SDF-1α binding to receptors CXCR4 on MT-4 cells (Test Example 2). To be noted: binding-inhibition % at 0.01 μM, 2 hours under ice-cooling, read-out: Inhibition rate (%). As to the method: MT-4 cells (5×10^6/0.2 ml/well) were cultured on a 24-well microtiter plate. After the cells were incubated for 24 hours at 37° C. in a carbon dioxide gas incubator, a culture medium was replaced with a buffer solution (0.1% BSA-containing RPMI-1640). Together with a ligand ^125I-SDF-1α (specific activity: 2,200 Ci/mmol; available from Daiichi Pure Chemicals Co., Ltd. (Tokyo)), test materials with various concentrations were subjected to a binding reaction for 2 hours under ice-cooling. […] Then, a rate of inhibition of the binding between radioactive ligands and receptors CXCR4 by a test material was calculated (a binding-inhibition % at 0.01 μM).

The test system of another series is SD mice. Briefly: Acute toxicity, single transvenous administration (Test Example 3). To be noted: 6-week-old male SD mice, 2.5 mg/kg transvenously once in physiological saline. It counts as in vivo. As to the method:
The aforementioned compound was examined for acute toxicity. Specifically, 6-week-old SD mice (male) were divided into several groups (2 to 3 mice in each group). Subsequently, each of the compounds of Examples was dissolved in a physiological saline solution, and the solution was transvenously administered to the mice (dose: 2.5 mg/kg) once. Then, the number of dead mice was counted.

SMILES strings stand for the structures.

This note sets out measurements from US7932281B2, “Amine-based compound and use thereof” (Kureha Corporation, priority 2004, dated 2011).

T1 sequence (P61073 whole entry): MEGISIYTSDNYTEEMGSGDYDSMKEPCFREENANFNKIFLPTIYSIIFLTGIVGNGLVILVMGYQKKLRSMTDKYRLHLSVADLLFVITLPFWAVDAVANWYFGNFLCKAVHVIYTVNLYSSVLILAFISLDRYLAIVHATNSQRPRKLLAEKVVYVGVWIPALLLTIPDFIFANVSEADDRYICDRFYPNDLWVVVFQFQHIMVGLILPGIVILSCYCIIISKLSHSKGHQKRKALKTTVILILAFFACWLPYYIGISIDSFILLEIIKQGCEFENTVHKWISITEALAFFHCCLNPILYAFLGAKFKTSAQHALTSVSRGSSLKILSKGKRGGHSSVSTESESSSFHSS

Compound `CCCN(CCC)CCCCN(CC(=O)O)Cc1ccc(CN(Cc2nccn2C)Cc2nccn2C)cc1` [Compound No. 100, [(4-[[bis-(1-methyl-1H-imidazol-2-ylmethyl)-amino]-methyl]-benzyl)-(4-dipropylamino-butyl)-amino]-acetic acid] came in with an EC50 in series [1] of 2 nM. Also, the inhibition at 0.01 µM at CXCR4 was 79.2%. Further, the Dead mice/test mice in the series on SD mice was 0/3.

Regarding `CCCN(CCC)CCCCN(CC(=O)OCC)Cc1ccc(CN(Cc2ncc[nH]2)Cc2ncc[nH]2)cc1` [Compound No. 97, [(4-[[bis-(1H-imidazol-2-ylmethyl)-amino]-methyl]-benzyl)-(4-dipropylamino-butyl)-amino]-acetic acid ethyl ester], the midpoint of the response in series [1], the EC50, lay at 1 nM. Besides, the inhibition at 0.01 µM at CXCR4 was determined as 85.6%. Besides, in the series with SD mice, the Dead mice/test mice is listed as 0/3.

Consider `CCCN(CCC)CCCCN(CCO)Cc1ccc(CN(Cc2ncc[nH]2)Cc2nccn2C)cc1` [Compound No. 1, 2-[(4-dipropylamino-butyl)-(4-{[(1H-imidazol-2-ylmethyl)-(1-methyl-1H-imidazol-2-ylmethyl)-amino]-methyl}-benzyl)-amino]-ethanol], for which the 50% effective concentration (EC50) in series [1] stood at 3 nM. In addition, the inhibition at 0.01 µM on CXCR4 is 87.9%. Also, in the series with SD mice, the Dead mice/test mice was 0/3.

The compound `CCCN(CCC)CCCCN(Cc1ccc(CN(Cc2ncc[nH]2)C2CCCc3cccnc32)cc1)S(C)(=O)=O` (stereo not shown) [Compound No. 50, N-(4-dipropylamino-butyl)-N-(4-{[(1H-imidazol-2-ylmethyl)-(5,6,7,8-tetrahydro-quinolin-8-yl)-amino]-methyl}-benzyl)-methanesulfonamide] came in with a concentration giving a half-maximal response (EC50) in series [1] of 401 nM. The inhibition at 0.01 µM at CXCR4 amounted to 53.4%. In addition, the Dead mice/test mice in the series with SD mice is given as 0/3.

The compound `CCCN(CCC)CCCc1nc2ccc(CN(Cc3ncc[nH]3)Cc3nccn3C)cc2n1CCC` [Compound No. 46, [3-(6-{[(1H-imidazol-2-ylmethyl)-(1-methyl-1H-imidazol-2-ylmethyl)-amino]-methyl}-1-propyl-1H-benzimidazol-2-yl)-propyl]-dipropyl-amine] yielded an EC50 in series [1] of 17 nM. For the same compound, the inhibition at 0.01 µM on CXCR4 was determined as 74.6%. Further, in the series with SD mice, the Dead mice/test mice is on record as 0/3.

`CCCN(CCC)CCCCc1nc2ccc(CN(Cc3ncc[nH]3)Cc3nccn3C)cc2n1C` [Compound No. 13, [4-(6-{[(1H-imidazol-2-ylmethyl)-(1-methyl-1H-imidazol-2-ylmethyl)-amino]-methyl}-1-methyl-1H-benzimidazol-2-yl)-butyl]-dipropyl-amine] showed an EC50 in series [1] of 3 nM. The inhibition at 0.01 µM on CXCR4 was 75.5%. In the series with SD mice, the Dead mice/test mice is reported as 0/3.

On to `CCCN(CCC)CCCCN(C)Cc1ccc(CNCc2nccn2Cc2nccn2C)cc1` [Compound No. 10], for which the EC50 in series [1] amounted to 9 nM. In addition, the inhibition at 0.01 µM on CXCR4 was found to be 20.4%. For the same compound, in the series on SD mice, the Dead mice/test mice is reported as 0/3.

Regarding `CCCN(CCC)Cc1ccc(NC(=O)c2ccc(CN(Cc3ncc(C)cc3C)Cc3nccn3C)cc2)cc1` [Compound No. 15, 4-{[(3,5-dimethyl-pyridin-2-ylmethyl)-(1-methyl-1H-imidazol-2-ylmethyl)-amino]-methyl}-N-(4-dipropylaminomethyl-phenyl)-benzamide], the 50% effective concentration (EC50) in series [1] was determined as 6 nM. The inhibition at 0.01 µM at CXCR4 was 74%. Further, the Dead mice/test mice in the series on SD mice is listed as 0/3.

Consider `CCCN(CCC)Cc1ccc(NC(=O)c2ccc(CN(Cc3ccc(CC)cn3)Cc3nccn3C)cc2)cc1` [Compound No. 16, 4-{[(5-ethyl-pyridin-2-ylmethyl)-(1-methyl-1H-imidazol-2-ylmethyl)-amino]-methyl}-N-(4-dipropylaminomethyl-phenyl)-benzamide], for which the EC50 in series [1] was determined as 3 nM. Also, the inhibition at 0.01 µM at CXCR4 is 46.9%. Besides, the Dead mice/test mice with SD mice is recorded as 0/3.

Compound `CCCN(CCC)Cc1ccc(-c2nc3ccc(CN(Cc4ncc[nH]4)Cc4nccn4C)cc3n2C)cc1` [Compound No. 29, [4-(6-{[(1H-imidazol-2-ylmethyl)-(1-methyl-1H-imidazol-2-ylmethyl)-amino]-methyl}-1-methyl-1H-benzimidazol-2-yl)-benzyl]-dipropyl-amine] displayed an EC50 in series [1] of 61 nM. Further, on CXCR4, the inhibition at 0.01 µM is 71.2%. Besides, the Dead mice/test mice in the series on SD mice is 0/3.

Take `CCCN(CCC)CCCCN(Cc1ccc(CN(Cc2ncc[nH]2)Cc2nccn2C)cc1)Cc1nnn[nH]1` [Compound No. 110, N-(4-{[(1H-imidazol-2-ylmethyl)-(1-methyl-1H-imidazol-2-ylmethyl)-amino]-methyl}-benzyl)-N′,N′-dipropyl-N-(1H-tetrazol-5-ylmethyl)-butane-1,4-diamine]: a half-maximal effect in series [1] (EC50) was put at 4 nM. Further, the inhibition at 0.01 µM on CXCR4 worked out at 71.4%.

For `CN(CCCCN1CCCCC1)Cc1ccc(CN(Cc2ncc[nH]2)Cc2nccn2C)cc1` [Compound No. 44, (4-{[(1H-imidazol-2-ylmethyl)-(1-methyl-1H-imidazol-2-ylmethyl)-amino]-methyl}-benzyl)-methyl-(4-piperidin-1-ylbutyl)amine], in series [1], the EC50 was found to be 2 nM. Also, the inhibition at 0.01 µM on CXCR4 is 81.6%. In addition, in the series with SD mice, the Dead mice/test mice was 0/3.

In series [1], `CCCN(CCC)CCCCN(CCC#N)Cc1ccc(CN(Cc2ncc[nH]2)Cc2nccn2C)cc1` [Compound No. 33, 3-[(4-dipropylamino-butyl)-(4-{[(1H-imidazol-2-ylmethyl)-(1-methyl-1H-imidazol-2-ylmethyl)-amino]-methyl}-benzyl)-amino]-propionitrile] displayed an EC50 of 3 nM. On CXCR4, the inhibition at 0.01 µM turned out to be 85.2%. Besides, the Dead mice/test mice in the series on SD mice was 0/3.

In series [1], `CCCN(CCC)CCOCCN(C)Cc1ccc(CN(Cc2ncc[nH]2)Cc2nccn2C)cc1` [Compound No. 109, (2-{2-[(4-{[(1H-imidazol-2-ylmethyl)-(1-methyl-1H-imidazol-2-ylmethyl)-amino]-methyl}-benzyl)-methyl-amino]-ethoxy}-ethyl)-dipropyl-amine] registered a concentration giving a half-maximal response (EC50) of 4 nM. The inhibition at 0.01 µM at CXCR4 is 94.3%.

In series [1], `CCCN(CCC)CCCCN(CC(=O)OC)Cc1ccc(CN(Cc2ncc[nH]2)Cc2ncc[nH]2)cc1` [Compound No. 87, [(4-[[bis-(1H-imidazol-2-ylmethyl)-amino]-methyl]-benzyl)-(4-dipropylamino-butyl)-amino]-acetic acid methyl ester] registered an EC50 of 3 nM. Also, at CXCR4, the inhibition at 0.01 µM worked out at 82.1%. The Dead mice/test mice in the series on SD mice is 0/3.

In turn, `CCCN(CCC)CCCCNC(=O)c1cn2cc(CN(Cc3ncc[nH]3)Cc3nccn3C)ccc2n1` [Compound No. 30] displayed an EC50 in series [1] of 92 nM. Besides, the inhibition at 0.01 µM on CXCR4 is 46%. Besides, the Dead mice/test mice in the series with SD mice is reported as 0/3.

As for `CCCN(CCC)CCCCN(Cc1ccc(CN(Cc2ncc[nH]2)Cc2nccn2C)cc1)C(=O)C(F)(F)F` [Compound No. 37, N-(4-dipropylamino-butyl)-2,2,2-trifluoro-N-(4-{[(1H-imidazol-2-ylmethyl)-(1-methyl-1H-imidazol-2-ylmethyl)-amino]-methyl}-benzyl)-acetamide], the EC50 in series [1] worked out at 3 nM. The inhibition at 0.01 µM at CXCR4 was found to be 92.3%. For the same compound, in the series on SD mice, the Dead mice/test mice is 0/3.

In turn, `CCCN(CCC)CCCCN(Cc1ccc(CN(Cc2ncc[nH]2)Cc2nccn2C)cc1)CC(F)(F)F` [Compound No. 31, N-(4-{[(1H-imidazol-2-ylmethyl)-(1-methyl-1H-imidazol-2-ylmethyl)-amino]-methyl}-benzyl)-N′,N′-dipropyl-N-(2,2,2-trifluoro-ethyl)-butane-1,4-diamine] gave a concentration giving a half-maximal response (EC50) in series [1] of 74 nM. In addition, the inhibition at 0.01 µM on CXCR4 was 47.3%. In addition, the Dead mice/test mice with SD mice is 0/3.

For the compound `CCCN(CCC)CCCCN(C)C(C(=O)O)c1ccc(CN(Cc2ncc[nH]2)Cc2nccn2C)cc1` (stereo not shown) [Compound No. 120, [(4-dipropylamino-butyl)-methyl-amino]-(4-{[(1H-imidazol-2-ylmethyl)-(1-methyl-1H-imidazol-2-ylmethyl)-amino]-methyl}-phenyl)-acetic acid], the response in series [1] was half-maximal at 4 nM (EC50). Also, the inhibition at 0.01 µM at CXCR4 turned out to be 79.7%.

In series [1], `CCCN(CCC)CCCCN(C)C(C(=O)OCC)c1ccc(CN(Cc2ncc[nH]2)Cc2nccn2C)cc1` (stereo not shown) [Compound No. 119, [(4-dipropylamino-butyl)-methyl-amino]-(4-{[(1H-imidazol-2-ylmethyl)-(1-methyl-1H-imidazol-2-ylmethyl)-amino]-methyl}-phenyl)-acetic acid ethyl ester] registered an EC50 of 4 nM. On CXCR4, the inhibition at 0.01 µM is 72.7%.

For the compound `CCCN(CCC)CCCCN(C)Cc1ccc(CN(Cc2ncc[nH]2)Cc2nccn2C)cc1C(=O)O` [Compound No. 122, 2-{[(4-dipropylamino-butyl)-methyl-amino]-methyl}-5-{[(1H-imidazol-2-ylmethyl)-(1-methyl-1H-imidazol-2-ylmethyl)-amino]-methyl}-benzoic acid], in series [1], the half-maximal effective concentration (EC50) is 4 nM. Further, the inhibition at 0.01 µM on CXCR4 came out at 71.3%.
